Where a name gives a salt, the structure may show the parent alone.
Row | Compound | melting point
1 | CN1CCN(c2ccccc2OC2CCN(c3ccc(C(F)(F)F)cc3)C2=O)CC1.Cl (stereo not drawn) | 137 to 162 °C
2 | CN1CCN(c2ncccc2OC2CCN(c3ccc(Br)cc3)C2=O)CC1 (stereo not drawn) (as salt: hydrochloride) [Example 8, 1-(4-Bromo-phenyl)-3-[2-(4-methyl-piperazin-1-yl)-pyridin-3-yloxy]-pyrrolidin-2-one] | 72 to 82 °C
3 | CN1CCN(c2ncccc2OC2CCN(c3ccc(C(C)(C)C)cc3)C2=O)CC1 (stereo not drawn) (as salt: salt) [Example 9, 1-(4-tert-Butyl-phenyl)-3-[2-(4-methyl-piperazin-1-yl)-pyridin-3-yloxy]-pyrrolidin-2-one] | 131 to 164 °C
4 | CC(C)Oc1ccc(N2CCC(Oc3cccnc3N3CCN(C)CC3)C2=O)cc1 (stereo not drawn) (as salt: salt) [Example 15, 1-[4-(Isopropoxy)-phenyl]-3-[2-(4-methyl-piperazin-1-yl)-pyridin-3-yloxy]-pyrrolidin-2-one] | 93 to 120 °C
5 | CN1CCN(c2ncccc2OC2CCN(c3ccc(OC(F)(F)F)cc3)C2=O)CC1 (stereo not drawn) (as salt: salt) [Example 16, 1-[4-(Trifluoromethoxy)-phenyl]-3-[2-(4-methyl-piperazin-1-yl)-pyridin-3-yloxy]-pyrrolidin-2-one] | 113 to 140 °C
6 | CN1CCN(c2ncccc2OC2CCN(c3ccc(C4CCOCC4)cc3)C2=O)CC1 (stereo not drawn) (as salt: salt) [Example 17, 3-[2-(4-Methyl-piperazin-1-yl)-pyridin-3-yloxy]-1-[4-(tetrahydro-pyran-4-yl)-phenyl]-pyrrolidin-2-one] | 219 to 248 °C
7 | CN1CCN(c2ncccc2OC2CCN(c3ccc(-c4ccon4)cc3)C2=O)CC1 (stereo not drawn) (as salt: salt) [Example 21, 1-[4-(3-Isoxazolyl)-phenyl]-3-[2-(4-methyl-piperazin-1-yl)-pyridin-3-yloxy]-pyrrolidin-2-one] | 220 °C
8 | CN1CCN(c2ccccc2OC2CCN(c3ccc(N4CCCC4=O)cc3)C2=O)CC1 (stereo not drawn) [Example 3, 3-[2-(4-Methyl-piperazin-1-yl)-phenoxy]-1-(4-(2-oxo-pyrrolidin-1-yl)-phenyl)-pyrrolidin-2-one] | 164 to 180 °C
9 | CN1CCN(c2ccccc2OC2CCCN(c3ccc(N4CCCC4=O)cc3)C2=O)CC1 (stereo not drawn) [Example 5, 3-[2-(4-Methyl-piperazin-1-yl)-phenoxy]-1-[4-(2-oxo-pyrrolidin-1-yl)-phenyl]-piperidin-2-one] | 68 to 75 °C
10 | CN1CCN(c2ccccc2OC2CCCN(c3ccc(N4CCOC4=O)cc3)C2=O)CC1 (stereo not drawn) [Example 6, 3-[2-(4-Methyl-piperazin-1-yl)-phenoxy]-1-[4-(2-oxo-oxazolidin-3-yl)-phenyl]-piperidin-2-one] | 71 to 88 °C
11 | CN1CCN(c2ccccc2OC2CCCN(c3ccc(C(F)(F)F)cc3)C2=O)CC1 (stereo not drawn) [Example 7, 3-[2-(4-Methyl-piperazin-1-yl)-phenoxy]-1-(4-trifluoromethyl-phenyl)-piperidin-2-one] | 81 to 110 °C
12 | CN1CCN(c2ncccc2OC2CCN(c3ccc(N4CCCCC4=O)cc3)C2=O)CC1 (stereo not drawn) [Example 11, 1-(4-{3-[2-(4-Methyl-piperazin-1-yl)-pyridin-3-yloxy]-2-oxo-pyrrolidin-1-yl}-phenyl)-piperidin-2-one] | 111 to 149 °C
